The test system of series [1] is NOD-scid Bbox1, IL2RG double knock-out mice. The series can be described thus: Passage efficiency of mice prepared by using Y-27632 (Treatment Example 20). It counts as in vivo, mouse. The text has this:
The double knock-out mice of IL2RG gene and the Bbox1 gene by using the NOD-scid mice in the above-mentioned treatment example 14 were mated with each other, and it was examined whether or not the newborn mouse was affected by Y-27632.

In series [2] the test system is two-cell stage embryo of a heterologous inbred SPR2 mouse. The series can be described thus: Heterologous Tyr knockout mouse production (Treatment Example 8). The series is classed as cell-based, Mus spretus. The conditions noted are these: SPR2, Tyr KO. As to the method:
1. Up to 3 hours before TAKE, Y-27632-added mWM medium (Y-27632 final concentration 10 μM, an example of the “temporary treatment medium” of this example), Y-27632-free mWM medium (an example of “normal medium” of this example) were dropped into 35 mm Petri dishes by 5 drops, respectively, to prepare drops covered with paraffin oil.
2. Two-cell stage embryos were collected from the drops or thawed, placed in Y-27632-added mWM medium, and cultured for about 30 minutes to 1 hour (temporary treatment).
3. After that, TAKE was performed.
4. After TAKE, the embryos were placed in Y-27632-added mWM medium and cultured for about 30 minutes to 1 hour (temporary treatment). Then, the embryos were placed in Y-27632-free mWM medium and cultured at 37° C. under 5% CO2 and 5% O2 conditions until transplantation.
By using a two-cell stage embryo of a heterologous inbred SPR2 mouse, four guide RNAs (crRNA: tracrRNA) for the Tyr gene were used about 100 ng/μL per RNA, for a total of about 400 ng/μL, and it was electroporated once or twice. Before and after electroporation, the embryos were cultured in the temporary treatment medium of this example.

Where [3] appears, read: NOG-Bbox1, generation F1, 3 pregnancies.
[4] abbreviates: NOG-Bbox1, generation F2, 8 pregnancies.

For `C[C@@H](N)[C@H]1CC[C@H](C(=O)Nc2ccncc2)CC1` [Y-27632, trans-4-[(1R)-1-Aminoethyl]-N-4-pyrid inylcyclohexanecarboxamide], the ave. litter size entry in series [1] (NOG-Bbox1, generation F1) was “(7.7/preg.)”; in series [1] (NOG-Bbox1, generation F2) it was “(6.8/preg.)”. Besides, the Total pups in series [1] (setting [3]) is on record as 23; in series [1] (setting [4]) it was 54. In addition, the female pups came to 13 in series [1] (setting [3]) and 25 in series [1] (setting [4]). Also, the male pups in series [1] (setting [3]) turned out to be 10; in series [1] (setting [4]), 29. Further, the “effect on mouse passage and phenotype” value in series [1] (offspring of mice produced with Y-27632 treated embryos) was “did not affect mouse passage and phenotype”. In addition, the mosaics obtained in series [2] (electroporated once) and in series [2] (electroporated twice) was 3 in each case. The individuals obtained came out at 7 in series [2] (electroporated once, 20 embryos transplanted) and 7 in series [2] (electroporated twice, 13 embryos transplanted). For the same compound, the “whites (homo or compound heterozygote) obtained” value in series [2] (electroporated twice) is on record as 3.

For the origin of these results see patent US20230220331A1, “TEMPORARY TREATMENT MEDIUM, TREATMENT KIT, EMBRYOGENESIS ARREST INHIBITOR, EMBRYOGENESIS ARREST INHIBITORY METHOD, DEVELOPMENTAL ENGINEERING PRODUCT PREPARATION METHOD, TRANSPLANTATION METHOD, THERAPEUTIC METHOD, AND DEVELOPMENTAL ENGINEERING PRODUCT” (priority 2020, published 2023).
